{"source": "patent US20130064815A1", "about": "“INDUCING APOPTOSIS IN QUIESCENT CELLS” (THE TRUSTEES OF PRINCETON UNIVERSITY, priority 2011, published 2013)", "key": {"[1]": {"target": "T1, G6PD (Homo sapiens, UniProt P11413)", "T1 construct": "endogenous in cells; host or cells: primary human foreskin fibroblasts (proliferating or serum-starved)", "T1 sequence (P11413 whole entry)": "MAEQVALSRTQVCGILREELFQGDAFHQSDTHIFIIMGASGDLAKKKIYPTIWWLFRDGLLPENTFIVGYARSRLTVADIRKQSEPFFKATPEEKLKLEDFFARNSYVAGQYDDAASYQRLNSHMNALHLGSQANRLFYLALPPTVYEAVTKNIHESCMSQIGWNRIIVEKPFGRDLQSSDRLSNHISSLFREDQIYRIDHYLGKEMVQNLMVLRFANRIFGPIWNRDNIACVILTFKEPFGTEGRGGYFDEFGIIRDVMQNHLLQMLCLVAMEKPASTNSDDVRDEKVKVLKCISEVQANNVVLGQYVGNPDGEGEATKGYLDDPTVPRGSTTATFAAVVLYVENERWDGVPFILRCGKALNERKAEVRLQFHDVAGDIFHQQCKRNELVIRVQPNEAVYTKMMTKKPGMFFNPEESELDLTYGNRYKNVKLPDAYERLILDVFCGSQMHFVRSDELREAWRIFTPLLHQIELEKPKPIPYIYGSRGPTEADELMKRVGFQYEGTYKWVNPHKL", "experiment": "G6PD activity in fibroblasts treated with DHEA", "assay_type": "cell-based", "source_text": "Referring to FIGS. 18A and 18B, NADPH production is induced in quiescent fibroblasts. G6PD, PGD and IDH1 are expressed at low levels in proliferating fibroblasts, at higher levels in 7 dCI, 14 dCI and 14 dCI7 dSS fibroblasts, and at even higher levels in 4 dSS and 7 dSS fibroblasts (FIGS. 18A and 18B). Malic enzyme, another protein that generates NADPH but was not predicted to be differentially active in proliferating versus quiescent fibroblasts, was expressed at similar levels in cells in all conditions. The activity of the NADPH-producing enzymes in cytosolic or mitochondrial lysates collected from cells in different proliferative conditions is shown in FIG. 18A. Immunoblotting confirmed successful separation of mitochondrial and cytosolic proteins. Lysates were incubated with the appropriate substrate and the rate of enzymatic activity was determined based on the appearance or disappearance of NADH or NADPH. G6PD had the highest specific activity among the enzymes monitored, consistent with previous reports that it is the most important contributor to NAPDH levels. […] Thus NADPH-generating enzymes in the pentose-phosphate pathway are activated in serum-starved fibroblasts. […]"}, "[2]": {"test_system": "P and CI14 fibroblasts", "experiment": "PPP inhibition and PI live/dead analysis by flow cytometry", "assay_type": "cell-based, human", "details": "CI14 vs proliferating fibroblasts; 100 μM and 250 μM, four days; p<0.01", "description": "The function of the PPP in quiescent and proliferating fibroblasts was tested. Proliferating or CI14 fibroblasts were incubated with DHEA, a small molecule inhibitor of the PPP for four days. The fraction of cells that were dead was monitored with propidium iodide (PI) labeling followed by flow cytometry.\nPPP inhibition and PI live/dead analysis: P and CI14 fibroblasts were treated with dehydroepiandrosterone dissolved in ethanol or dimethylsufoxide (0.1% vol/vol) for four days. On the fourth day of treatment with the inhibitor, cells were trypsinized and collected into conditioned media. Cells were then centrifuged for 5 min at 1000 rpm. The supernatant was aspirated and cells were taken up in PBS with 1 μg/ml PI (VWR, West Chester, Pa.). Cells were kept on ice and immediately analyzed by flow cytometry using a BD LSRII multi-laser analyzer (BD Biosciences, San Jose, Calif.). PI was excited at 488 nm and emitted fluorescence was collected through a 610/20 bandpass filter. At least 40,000 cells were collected and analyzed with FACSDiVa software (BD Biosciences, San Jose, Calif.). PI negative cells were counted as live cells and PI positive cells were counted as dead cells."}, "[3]": {"test_system": "low-grade cervical lesions", "details": "12 women with low-grade dysplasia; intravaginal; cited from earlier work"}, "[4]": {"test_system": "thyroid tumors", "details": "F344 rats treated with DHPN, then DHEA; cited from earlier work"}, "[5]": {"test_system": "neoplasms, lymphoblastic lymphoma", "details": "p53-deficient mouse; cited from earlier work"}, "[6]": {"test_system": "four day serum starved fibroblasts", "experiment": "induction of apoptosis in quiescent fibroblasts by DHEA and/or autophagy inhibitor combined with proteasome inhibitors", "assay_type": "cell-based, human", "details": "DHEA alone; 48 hour treatment", "description": "Referring to FIG. 17, the effect of treatment using DHEA and/or an autophagy inhibitor combined with proteasome inhibitors on apoptosis in quiescent cells was analyzed.\nIn this experiment, the proteasome inhibitor, bortezomib, was used in varying concentrations with DHEA during a 48 hour treatment."}, "[7]": {"test_system": "extracellular glutathione", "experiment": "glutathione in conditioned medium by mass spectrometry", "assay_type": "cell-based, human", "details": "7 dSS fibroblasts; DHEA vs DMSO control", "source_text": "It was expected that the reduction in NADPH levels that resulted from DHEA treatment would result in lower activity of glutathione reductase and thus a decrease in the levels of reduced glutathione. […] The depletion of glutathione in response to DHEA could be an important part of the apoptotic pathway. Alternatively, because apoptosing cells can rapidly and selectively release glutathione to the extracellular environment (van den Dobbelsteen et al., 1996, “Rapid and specific efflux of reduced glutathione during apoptosis induced by anti-Fas/APO-1 antibody,” J Biol Chem 271, 15240-15427; Franco et al., “Glutathione depletion is necessary for apoptosis in lymphoid cells independent of reactive oxygen species,” J Biol Chem 282, 30452-30465, 2007, which are incorporated herein by reference as if fully set forth), the depletion of glutathione could represent a response to a distinct apoptotic trigger. Mass spectrometry was used to measure glutathione levels in conditioned medium from 7 dSS fibroblasts treated with DMSO as a control or with DHEA. There was no increase in extracellular glutathione in conditioned medium from DHEA-treated fibroblasts compared with controls; in fact, levels were lower, consistent with a DHEA-induced reduction in intracellular levels of reduced glutathione. […]"}}, "data": [{"smiles": "C[C@]12CC[C@H](O)CC1=CC[C@@H]1[C@@H]2CC[C@]2(C)C(=O)CC[C@@H]12", "note": "[DHEA, dehydroepiandrosterone]", "values": [{"measurement": "G6PD activity", "setting": "[1]; proliferating cells treated with DHEA", "value": "declined"}, {"measurement": "G6PD activity", "setting": "[1]; serum-starved fibroblasts treated with DHEA", "value": "significantly declined"}, {"measurement": "cell death (PI labeling)", "setting": "[2]", "value": "statistically significant increase in cell death"}, {"measurement": "regression of low-grade cervical lesions", "setting": "[3]", "value": "may promote regression of low-grade cervical lesions"}, {"measurement": "safety", "setting": "[3]", "value": "safe to administer"}, {"measurement": "basophilic hepatocellular foci", "setting": "[4]", "value": "associated with development of basophilic hepatocellular foci"}, {"measurement": "development of thyroid tumors", "setting": "[4]", "value": "decreased development of thyroid tumors"}, {"measurement": "death due to neoplasms", "setting": "[5]", "value": "delay death due to neoplasms"}, {"measurement": "increase in apoptosis induction", "setting": "[6]", "value": "~2", "unit": "fold"}, {"measurement": "extracellular glutathione in conditioned medium", "setting": "[7]", "value": "no increase"}]}]}
